Measured values from patent US8653092B2, “Tetrahydro-pyrido-pyrimidine derivatives” (Novartis AG, priority 2010, dated 2014).

How the values were obtained:
PI3K alpha = PI3K alpha (Homo sapiens (Human), UniProt P42336); experiment: Enzymatic PI3K alpha isoform inhibition (lipid kinase, Kinase-Glo luminescence); format: biochemical; settings: enzymatic assay
PI3K delta = PI3K delta (Homo sapiens (Human), UniProt O00329); experiment: Enzymatic PI3K delta isoform inhibition (lipid kinase, Kinase-Glo luminescence); format: biochemical; settings: enzymatic assay
Chain of PI3K delta (O00329 other isoform, or with tags, fused parts or gaps linker GGGGGG): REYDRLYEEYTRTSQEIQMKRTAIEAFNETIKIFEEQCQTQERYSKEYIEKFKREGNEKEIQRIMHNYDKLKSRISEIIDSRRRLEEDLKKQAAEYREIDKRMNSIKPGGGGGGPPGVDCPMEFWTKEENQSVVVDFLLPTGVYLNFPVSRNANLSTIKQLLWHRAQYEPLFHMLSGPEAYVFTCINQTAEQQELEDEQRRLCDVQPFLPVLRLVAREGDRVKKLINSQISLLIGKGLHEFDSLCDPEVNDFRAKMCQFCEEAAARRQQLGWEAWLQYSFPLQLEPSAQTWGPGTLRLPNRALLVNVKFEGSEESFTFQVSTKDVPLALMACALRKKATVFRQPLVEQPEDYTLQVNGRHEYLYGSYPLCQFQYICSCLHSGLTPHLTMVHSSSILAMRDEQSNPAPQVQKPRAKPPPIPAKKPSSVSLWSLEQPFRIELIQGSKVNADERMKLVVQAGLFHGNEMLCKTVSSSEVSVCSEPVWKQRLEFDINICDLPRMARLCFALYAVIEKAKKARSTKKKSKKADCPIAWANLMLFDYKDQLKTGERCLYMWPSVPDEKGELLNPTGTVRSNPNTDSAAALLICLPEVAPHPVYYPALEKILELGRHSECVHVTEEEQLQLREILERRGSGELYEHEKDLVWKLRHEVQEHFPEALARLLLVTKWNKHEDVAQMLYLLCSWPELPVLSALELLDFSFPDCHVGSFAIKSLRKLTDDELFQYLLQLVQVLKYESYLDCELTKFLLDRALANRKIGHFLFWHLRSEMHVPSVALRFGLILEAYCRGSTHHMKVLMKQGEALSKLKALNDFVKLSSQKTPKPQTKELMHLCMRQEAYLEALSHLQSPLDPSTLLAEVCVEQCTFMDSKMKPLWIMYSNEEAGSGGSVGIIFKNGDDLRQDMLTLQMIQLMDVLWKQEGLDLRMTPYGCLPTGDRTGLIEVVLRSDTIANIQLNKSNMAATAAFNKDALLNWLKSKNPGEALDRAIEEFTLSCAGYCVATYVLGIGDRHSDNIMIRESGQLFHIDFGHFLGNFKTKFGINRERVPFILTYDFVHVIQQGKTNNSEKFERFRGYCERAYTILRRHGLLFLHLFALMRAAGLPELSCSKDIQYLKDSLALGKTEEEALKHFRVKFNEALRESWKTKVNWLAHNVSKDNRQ

Chain of PI3K alpha (P42336 other isoform, or with tags, fused parts or gaps): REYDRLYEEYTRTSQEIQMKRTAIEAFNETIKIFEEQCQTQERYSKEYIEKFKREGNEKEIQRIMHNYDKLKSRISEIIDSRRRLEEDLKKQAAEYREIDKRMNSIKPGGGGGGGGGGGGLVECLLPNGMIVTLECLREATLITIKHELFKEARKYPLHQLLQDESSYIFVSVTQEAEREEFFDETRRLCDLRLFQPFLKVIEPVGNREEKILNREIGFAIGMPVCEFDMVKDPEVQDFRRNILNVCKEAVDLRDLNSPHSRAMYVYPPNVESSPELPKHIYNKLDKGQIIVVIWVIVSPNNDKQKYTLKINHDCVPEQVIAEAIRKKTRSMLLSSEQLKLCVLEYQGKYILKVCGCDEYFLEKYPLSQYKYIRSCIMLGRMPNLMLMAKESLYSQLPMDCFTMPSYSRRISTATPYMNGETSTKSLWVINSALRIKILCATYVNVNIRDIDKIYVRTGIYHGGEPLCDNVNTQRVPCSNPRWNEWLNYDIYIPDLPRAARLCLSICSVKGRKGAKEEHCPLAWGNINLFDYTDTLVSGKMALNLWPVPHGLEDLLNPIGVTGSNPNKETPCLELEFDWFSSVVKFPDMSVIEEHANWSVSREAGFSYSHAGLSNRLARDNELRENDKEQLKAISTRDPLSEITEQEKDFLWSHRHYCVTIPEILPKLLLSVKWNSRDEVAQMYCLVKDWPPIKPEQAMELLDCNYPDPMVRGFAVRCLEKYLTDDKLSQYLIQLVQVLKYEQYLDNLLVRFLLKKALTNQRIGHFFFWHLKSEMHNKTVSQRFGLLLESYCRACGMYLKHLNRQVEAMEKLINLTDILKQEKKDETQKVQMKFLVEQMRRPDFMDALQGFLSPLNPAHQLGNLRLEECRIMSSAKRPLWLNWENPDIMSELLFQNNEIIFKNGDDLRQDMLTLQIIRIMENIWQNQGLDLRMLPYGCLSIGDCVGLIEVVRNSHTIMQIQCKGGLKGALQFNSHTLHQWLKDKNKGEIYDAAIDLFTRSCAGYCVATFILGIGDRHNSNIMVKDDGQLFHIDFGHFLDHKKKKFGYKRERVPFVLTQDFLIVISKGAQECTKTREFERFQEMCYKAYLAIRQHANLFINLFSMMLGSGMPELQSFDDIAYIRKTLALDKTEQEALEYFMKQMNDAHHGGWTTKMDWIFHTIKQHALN

SMILES | IC50 (PI3K alpha) | IC50 (PI3K delta)
COc1ncc(N2CCc3ncnc(O[C@H]4CCN(C(=O)C5CCOCC5)C4)c3C2)cn1 [Example 59, {(S)-3-[6-(2-Methoxy-pyrimidin-5-yl)-5,6,7,8-tetrahydro-pyrido[4,3-d]pyrimidin-4-yloxy]-pyrrolidin-1-yl}-(tetrahydro-pyran-4-yl)-methanone] | 9100 nM | 28 nM
COc1ncc(N2CCc3ncnc(OC4CN(C(=O)C5CCOCC5)C4)c3C2)cc1C(F)(F)F [Example 58, {3-[6-(6-Methoxy-5-trifluoromethyl-pyridin-3-yl)-5,6,7,8-tetrahydro-pyrido[4,3-d]pyrimidin-4-yloxy]-azetidin-1-yl}-(tetrahydro-pyran-4-yl)-methanone] | 3060 nM | 30 nM
COc1ncc(N2CCc3ncnc(O[C@H]4CCN(C(=O)c5cscn5)C4)c3C2)cc1C(F)(F)F [Example 55, {(S)-3-[6-(6-Methoxy-5-trifluoromethyl-pyridin-3-yl)-5,6,7,8-tetrahydro-pyrido[4,3-d]pyrimidin-4-yloxy]-pyrrolidin-1-yl}-thiazol-4-yl-methanone] | 661 nM | 5 nM
COc1cc(N2CCc3ncnc(O[C@H]4CCN(C(=O)C5CCC(F)(F)CC5)C4)c3C2)cnc1OC [Example 26, (4,4-Difluoro-cyclohexyl)-{(S)-3-[6-(5,6-dimethoxy-pyridin-3-yl)-5,6,7,8-tetrahydro-pyrido[4,3-d]pyrimidin-4-yloxy]-pyrrolidin-1-yl}-methanone] | 368 nM | 21 nM
COc1ncc(N2CCc3ncnc(O[C@H]4CCN(C(=O)C5CCOCC5)C4)c3C2)cc1F [Example 7] | 1970 nM | 13 nM
COc1ncc(N2CCc3ncnc(O[C@H]4CCN(C(=O)C5CCOCC5)C4)c3C2)cc1Cl [Example 56, {(S)-3-[6-(5-Chloro-6-methoxy-pyridin-3-yl)-5,6,7,8-tetrahydro-pyrido[4,3-d]pyrimidin-4-yloxy]-pyrrolidin-1-yl}-(tetrahydro-pyran-4-yl)-methanone] | 860 nM | 13 nM
COc1ncc(N2CCc3ncnc(O[C@H]4CCN(C(=O)c5cnccn5)C4)c3C2)cc1C(F)(F)F [Example 52, {(S)-3-[6-(6-Methoxy-5-trifluoromethyl-pyridin-3-yl)-5,6,7,8-tetrahydro-pyrido[4,3-d]pyrimidin-4-yloxy]-pyrrolidin-1-yl}-pyrazin-2-yl-methanone] | 1020 nM | 46 nM
COc1ncc(N2CCc3ncnc(O[C@H]4CCN(C(=O)N(C)CCO)C4)c3C2)cc1C(F)(F)F [Example 88, (S)-3-[6-(6-Methoxy-5-trifluoromethyl-pyridin-3-yl)-5,6,7,8-tetrahydro-pyrido[4,3-d]pyrimidin-4-yloxy]-pyrrolidine-1-carboxylic acid (2-hydroxy-ethyl)-methyl-amide] | 1340 nM | 34 nM
COc1ncc(N2CCc3ncnc(O[C@H]4CCN(C(=O)c5cnco5)C4)c3C2)cc1C(F)(F)F [Example 94, {(S)-3-[6-(6-Methoxy-5-trifluoromethyl-pyridin-3-yl)-5,6,7,8-tetrahydro-pyrido[4,3-d]pyrimidin-4-yloxy]-pyrrolidin-1-yl}-oxazol-5-yl-methanone] | 1710 nM | 
COc1ncc(N2CCc3ncnc(O[C@H]4CCN(C(=O)C5CCS(=O)(=O)CC5)C4)c3C2)cc1C(F)(F)F [Example 39, (1,1-Dioxo-hexahydro-1lambda*6*-thiopyran-4-yl)-{(S)-3-[6-(6-methoxy-5-trifluoromethyl-pyridin-3-yl)-5,6,7,8-tetrahydro-pyrido[4,3-d]pyrimidin-4-yloxy]-pyrrolidin-1-yl}-methanone] | 434 nM | 9 nM
COc1ncc(N2CCc3ncnc(O[C@H]4CCN(C(=O)C5CCCC5)C4)c3C2)cc1C#N [Example 9, 5-[4-((S)-1-Cyclopentanecarbonyl-pyrrolidin-3-yloxy)-7,8-dihydro-5H-pyrido[4,3-d]pyrimidin-6-yl]-2-methoxy-nicotinonitrile] | 2910 nM | 9 nM
COc1ncc(N2CCc3ncnc(O[C@H]4CCN(C(=O)c5cocn5)C4)c3C2)cc1C(F)(F)F [Example 91, {(S)-3-[6-(6-methoxy-5-trifluoromethyl-pyridin-3-yl)-5,6,7,8-tetrahydro-pyrido[4,3-d]pyrimidin-4-yloxy]-pyrrolidin-1-yl}-oxazol-4-yl-methanone] | 924 nM | 11 nM
COc1ncc(N2CCc3ncnc(O[C@H]4CCN(C(=O)N5CCOCC5)C4)c3C2)cc1C(F)(F)F [Example 86, -{(S)-3-[6-(6-Methoxy-5-trifluoromethyl-pyridin-3-yl)-5,6,7,8-tetrahydro-pyrido[4,3-d]pyrimidin-4-yloxy]-pyrrolidin-1-yl}-morpholin-4-yl-methanone] | 1330 nM | 20 nM
COC(=O)N1CC[C@H](Oc2ncnc3c2CN(c2cnc(OC)c(C#N)c2)CC3)C1 [Example 90, (S)-3-[6-(5-cyano-6-methoxy-pyridin-3-yl)-5,6,7,8-tetrahydro-pyrido[4,3-d]pyrimidin-4-yloxy]-pyrrolidine-1-carboxylic acid methyl ester] |  | 38 nM
COc1ncc(N2CCc3ncnc(O[C@H]4CCN(C(=O)c5cocn5)C4)c3C2)cc1C [Example 16] | 1680 nM | 16 nM
COc1ncc(N2CCc3ncnc(N[C@H]4CCN(C(=O)c5cn(C)cn5)C4)c3C2)cc1C [Example 77, -{(S)-3-[6-(6-Methoxy-5-methyl-pyridin-3-yl)-5,6,7,8-tetrahydro-pyrido[4,3-d]pyrimidin-4-ylamino]-pyrrolidin-1-yl}-(1-methyl-1H-imidazol-4-yl)-methanone] | 1290 nM | 44 nM
COc1ncc(N2CCc3ncnc(O[C@H]4CCN(C(=O)c5ncoc5C)C4)c3C2)cc1C [Example 30, {(S)-3-[6-(6-Methoxy-5-methyl-pyridin-3-yl)-5,6,7,8-tetrahydro-pyrido[4,3-d]pyrimidin-4-yloxy]-pyrrolidin-1-yl}-(5-methyl-oxazol-4-yl)-methanone] | 2830 nM | 40 nM
COc1ncc(N2CCc3ncnc(O[C@H]4CCN(C(=O)C5CCOC(C)(C)C5)C4)c3C2)cc1C#N (stereo partly drawn) [Example 29, 5-{4-[(S)-1-(2,2-Dimethyl-tetrahydro-pyran-4-carbonyl)-pyrrolidin-3-yloxy]-7,8-dihydro-5H-pyrido[4,3-d]pyrimidin-6-yl}-2-methoxy-nicotinonitrile] | 2580 nM | 11 nM
COc1ncc(N2CCc3ncnc(O[C@H]4CCN(C(=O)c5ccn(C)n5)C4)c3C2)cc1C#N [Example 37, 2-Methoxy-5-{4-[(S)-1-(1-methyl-1H-pyrazole-3-carbonyl)-pyrrolidin-3-yloxy]-7,8-dihydro-5H-pyrido[4,3-d]pyrimidin-6-yl}-nicotinonitrile] | 7020 nM | 31 nM
COc1ncc(N2CCc3ncnc(O[C@H]4CCN(C(=O)C5CCOCC5)C4)c3C2)cc1C(F)(F)F [Example 61, {(S)-3-[6-(6-Methoxy-5-trifluoromethyl-pyridin-3-yl)-5,6,7,8-tetrahydro-pyrido[4,3-d]pyrimidin-4-yloxy]-pyrrolidin-1-yl}-(tetrahydro-pyran-4-yl)-methanone] | 589 nM | 12 nM
COc1cc(N2CCc3ncnc(O[C@H]4CCN(C(=O)c5oc(C)nc5C)C4)c3C2)cnc1OC [Example 25, {(S)-3-[6-(5,6-Dimethoxy-pyridin-3-yl)-5,6,7,8-tetrahydro-pyrido[4,3-d]pyrimidin-4-yloxy]-pyrrolidin-1-yl}-(2,4-dimethyl-oxazol-5-yl)-methanone] | 820 nM | 26 nM
COc1ncc(N2CCc3ncnc(O[C@H]4CCN(C(=O)c5cn(C)cn5)C4)c3C2)cc1C(F)(F)F [Example 53, {(S)-3-[6-(6-Methoxy-5-trifluoromethyl-pyridin-3-yl)-5,6,7,8-tetrahydro-pyrido[4,3-d]pyrimidin-4-yloxy]-pyrrolidin-1-yl}-(1-methyl-1H-imidazol-4-yl)-methanone] | 504 nM | 6 nM
COc1ncc(N2CCc3ncnc(N[C@H]4CCN(C(=O)[C@H]5CC[C@@H](O)CC5)C4)c3C2)cc1C(F)(F)F (single isomer, unassigned) [Example 75] | 118 nM | 4 nM
COc1ncc(N2CCc3ncnc(O[C@H]4CCN(C(=O)C5CCC(=O)N5)C4)c3C2)cc1C(F)(F)F (stereo partly drawn) [Example 46, 5-{(S)-3-[6-(6-Methoxy-5-trifluoromethyl-pyridin-3-yl)-5,6,7,8-tetrahydro-pyrido[4,3-d]pyrimidin-4-yloxy]-pyrrolidine-1-carbonyl}-pyrrolidin-2-one] | 803 nM | 27 nM
COc1ncc(N2CCc3ncnc(N[C@H]4CCN(C(=O)c5cnco5)C4)c3C2)cc1C [Example 78, {(S)-3-[6-(6-Methoxy-5-methyl-pyridin-3-yl)-5,6,7,8-tetrahydro-pyrido[4,3-d]pyrimidin-4-ylamino]-pyrrolidin-1-yl}-oxazol-5-yl-methanone] | 384 nM | 12 nM
COc1ncc(N2CCc3ncnc(N[C@H]4CCN(C(=O)C5CCN(C(C)=O)CC5)C4)c3C2)cc1C(F)(F)F [Example 70, 1-(4-{(S)-3-[6-(6-methoxy-5-trifluoromethyl-pyridin-3-yl)-5,6,7,8-tetrahydro-pyrido[4,3-d]pyrimidin-4-ylamino]-pyrrolidine-1-carbonyl}-piperidin-1-yl)-ethanone] | 121 nM | 6 nM
COc1ncc(N2CCc3ncnc(N[C@H]4CCN(C(=O)[C@H]5CC[C@H](OC)CC5)C4)c3C2)cc1C(F)(F)F (single isomer, unassigned) [Example 74] |  | 4 nM
COc1ncc(N2CCc3ncnc(N[C@H]4CCN(C(=O)[C@H]5CC[C@@H](OC)CC5)C4)c3C2)cc1C(F)(F)F (single isomer, unassigned) [Example 73] |  | 4 nM
COc1ncc(N2CCc3ncnc(O[C@H]4CCN(C(=O)N5CCN(C)CC5)C4)c3C2)cc1C(F)(F)F [Example 85, {(S)-3-[6-(6-methoxy-5-trifluoromethyl-pyridin-3-yl)-5,6,7,8-tetrahydro-pyrido[4,3-d]pyrimidin-4-yloxy]-pyrrolidin-1-yl}-(4-methyl-piperazin-1-yl)-methanone] |  | 21 nM
